Biological target: T1, recombinant human IL-8 type b receptor (IL-8 Rb, Type II, permissive receptor) (Homo sapiens, UniProt P25025)
T1 construct: membranes
T1 sequence (P25025 1-360): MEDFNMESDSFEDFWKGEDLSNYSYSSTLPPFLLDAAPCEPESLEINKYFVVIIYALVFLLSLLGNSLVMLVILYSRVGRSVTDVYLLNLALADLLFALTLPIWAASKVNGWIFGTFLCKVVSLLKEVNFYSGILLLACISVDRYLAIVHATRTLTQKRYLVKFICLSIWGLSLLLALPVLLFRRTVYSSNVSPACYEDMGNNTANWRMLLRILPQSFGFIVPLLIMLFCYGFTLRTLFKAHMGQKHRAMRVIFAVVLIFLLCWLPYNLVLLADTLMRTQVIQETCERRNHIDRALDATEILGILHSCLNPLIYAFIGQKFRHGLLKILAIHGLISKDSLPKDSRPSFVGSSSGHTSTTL
Assay: Receptor binding assay, [125I] IL-8, permissive model
Source text: [^125 I] IL-8 (human recombinant) was obtained from Amersham Corp., Arlington Heights, Ill., with specific activity 2000 Ci/mmol. Gro-a was obtained from NEN-New England Nuclear. All other chemicals were of analytical grade. High levels of recombinant human IL-8 type a and b receptors were individually expressed in Chinese hamster ovary cells as described previously (Holmes, et al., Science, 1991, 253, 1278). The Chinese hamster ovary membranes were homogenized according to a previously described protocol (Haour, et al., J Biol Chem., 249 pp 2195-2205 (1974)). Except that the homogenization buffer was changed to 10 mM Tris-HCL, 1 mM MgSO4, 0.5 mM EDTA (ethylene-diaminetetra-acetic acid), 1 mMPMSF (a-toluenesulphonyl fluoride), 0.5 mg/L Leupeptin, pH 7.5. Membrane protein concentration was determined using Pierce Co. micro-assay kit using bovine serum albumin as a standard. All assays were performed in a 96-well micro plate format. Each reaction mixture contained ^125 I IL-8 (0.25 nM) or ^125 I Gro-a and 0.5 μg/mL of IL-8Ra or 1.0 μg/mL of IL-8Rb membranes in 20 mM Bis-Trispropane and 0.4 mM Tris HCl buffers, pH 8.0, containing 1.2 mM MgSO4, 0.1 mM EDTA, 25 mM NaCl and 0.03% CHAPS. […] The filter was then dried and counted on the Betaplate liquid scintillation counter. […]

level at which found to be active (IL-8 receptor inhibition): about 75 μg/mL
SMILES: Cc1cc(Cl)ccc1NC(=O)Nc1ccccc1C(=O)O [1-(2-Carboxyphenyl)-3-(4-chloro-2-methylphenyl)urea]

Source: patent publication US6211373A, “Phenyl urea antagonists of the IL-8 receptor” (SmithKline Beecham Corporation, priority 1998, dated 2001)
